Results taken from patent publication US20180243273A1, “Composition for Intravesical Administration for Treating Bladder Pain” (priority 2017, published 2018).

How the values were obtained:
[1] = Stability after autoclaving; type: physicochemical; conditions: 121° C. and 2 bar for 20 min
Method: The stability of the pharmaceutical composition was assessed by means of autoclaving experiments, where the compositions were treated at 121° C. and 2 bar for 20 min.
Autoclaving experiments were performed with the aim to evaluate the stability of API in defined buffer systems and excipients. Clear glass covered by aluminium foil was chosen as primary packaging as it provided sufficient light protection for the material and was expected to provide a smaller risk of interaction than amber glass. The batches were autoclaved at 121° C. and 2 bar for 20 min, following analysis of impurity profiles.

[2] = Preliminary stability study of API intravesical solution; type: physicochemical
Method: Two dose strengths were specified: 40 μg/mL and 150 μg/mL API. These concentrations were defined in order to stay below 80% of the saturated solubility values obtained during previous experiments. To enable dissolution of the API, 0.5 wt.-% and 2 wt.-% vitamin E TPGS were used for 40 μg/mL and 150 μg/mL API, respectively (24 h stirring). The compositions were treated with nitrogen and stored at 5° C., 25° C. and 40° C.

[3] = vitamin E TPGS 0.5%, API 40 μg/mL, Asc. 1%, 6° C., 1 m
[4] = vitamin E TPGS 0.5%, API 40 μg/mL, Asc. 1%, 6° C., 2 w
[5] = vitamin E TPGS 0.5%, API 40 μg/mL, Asc. 1%, t = 0
[6] = vitamin E TPGS 0.5%, API 40 μg/mL, no Asc., treated with nitrogen, 6° C., 1 m
[7] = vitamin E TPGS 0.5%, API 40 μg/mL, no Asc., treated with nitrogen, 6° C., 2 w
[8] = vitamin E TPGS 0.5%, API 40 μg/mL, no Asc., treated with nitrogen, 6° C., 3 m
[9] = vitamin E TPGS 0.5%, API 40 μg/mL, no Asc., treated with nitrogen, 25° C., 1 m
[10] = vitamin E TPGS 0.5%, API 40 μg/mL, no Asc., treated with nitrogen, 25° C., 2 w
[11] = vitamin E TPGS 0.5%, API 40 μg/mL, no Asc., treated with nitrogen, 25° C., 3 m
[12] = vitamin E TPGS 0.5%, API 40 μg/mL, no Asc., treated with nitrogen, 40° C., 1 m
[13] = vitamin E TPGS 0.5%, API 40 μg/mL, no Asc., treated with nitrogen, 40° C., 2 w
[14] = vitamin E TPGS 0.5%, API 40 μg/mL, no Asc., treated with nitrogen, 40° C., 3 m
[15] = vitamin E TPGS 0.5%, API 40 μg/mL, no Asc., treated with nitrogen, t = 0
[16] = vitamin E TPGS 2%, API 150 μg/mL, Asc. 1%, 6° C., 1 m
[17] = vitamin E TPGS 2%, API 150 μg/mL, Asc. 1%, 6° C., 2 w
[18] = vitamin E TPGS 2%, API 150 μg/mL, Asc. 1%, t = 0
[19] = vitamin E TPGS 2%, API 150 μg/mL, no Asc., treated with nitrogen, 6° C., 1 m
[20] = vitamin E TPGS 2%, API 150 μg/mL, no Asc., treated with nitrogen, 6° C., 2 w
[21] = vitamin E TPGS 2%, API 150 μg/mL, no Asc., treated with nitrogen, 6° C., 3 m
[22] = vitamin E TPGS 2%, API 150 μg/mL, no Asc., treated with nitrogen, 25° C., 1 m
[23] = vitamin E TPGS 2%, API 150 μg/mL, no Asc., treated with nitrogen, 25° C., 2 w

With `CN(C)[C@]1(c2cccc(F)c2)CC[C@]2(CC1)c1[nH]c3ccccc3c1CCN2C(=O)/C=C/c1ccccc1` [API, cis-(E)-4-(3-fluorophenyl)-2′,3′,4′,9′-tetrahydro-N,N-dimethyl-2′-(1-oxo-3-phenyl-2-propenyl)-spiro[cyclohexane-1,1′[1H]-pyrido[3,4-b]indol]-4-amine] the “degradation of API after autoclaving” value ([1]; citrate buffer and SLS) was “highest degradation”, the “degradation of API after autoclaving” value ([1]; phosphate buffer and vitamin E TPGS) was “lowest degradation” and the “assay values over storage” value ([2]; all investigated compositions, 3 months, stored at 6° C. or 25° C.) was “remained stable”. For the same compound, the assay over storage ([2]; stored at 40° C.) was “decreased considerably”, the Assay [2, 3] was 70.25 % L.S and the Impurities [2, 3] was 1.00 % (a/a). The Assay [2, 4] was 70.56 % L.S, the Impurities [2, 4] was 0.57 % (a/a) and the Assay [2, 5] was 70.39 % L.S. The Impurities [2, 5] was 0.57 % (a/a), the Assay [2, 6] was 54.62 % L.S and the Impurities [2, 6] was 0.58 % (a/a). The Assay [2, 7] was 54.81 % L.S, the Impurities [2, 7] was 0.08 % (a/a) and the Assay [2, 8] was 55.05 % L.S. The Impurities [2, 8] was 0.69 % (a/a), the Assay [2, 9] was 54.98 % L.S and the Impurities [2, 9] was 0.86 % (a/a). For the same compound, the Assay [2, 10] was 54.71 % L.S, the Impurities [2, 10] was 0.97 % (a/a) and the Assay [2, 11] was 54.50 % L.S. The Impurities [2, 11] was 1.42 % (a/a), the Assay [2, 12] was 54.06 % L.S and the Impurities [2, 12] was 1.78 % (a/a). The Assay [2, 13] was 54.61 % L.S, the Impurities [2, 13] was 1.04 % (a/a) and the Assay [2, 14] was 52.07 % L.S. For the same compound, the Impurities [2, 14] was 4.94 % (a/a), the Assay [2, 15] was 54.58 % L.S and the Impurities [2, 15] was 0.55 % (a/a). The Assay [2, 16] was 67.68 % L.S, the Impurities [2, 16] was 1.16 % (a/a) and the Assay [2, 17] was 68.11 % L.S. The Impurities [2, 17] was 0.68 % (a/a), the Assay [2, 18] was 68.21 % L.S and the Impurities [2, 18] was 0.68 % (a/a). For the same compound, the Assay [2, 19] was 61.93 % L.S, the Impurities [2, 19] was 0.72 % (a/a) and the Assay [2, 20] was 62.29 % L.S. For the same compound, the Impurities [2, 20] was 0.49 % (a/a), the Assay [2, 21] was 62.05 % L.S and the Impurities [2, 21] was 0.72 % (a/a). For the same compound, the Assay [2, 22] was 62.07 % L.S, the Impurities [2, 22] was 1.00 % (a/a) and the Assay [2, 23] was 61.97 % L.S. For the same compound, the Impurities [2, 23] was 0.68 % (a/a).
